Measured values from US20260337214A1, “IRON BASED MRI PROBES” (The General Hospital Corporation, priority 2022, published 2026).

Experiments:
Assay type in all cases: physicochemical
[1] = pH-potentiometric titration combined with EDTA competition assay; settings: estimated
Protocol: The title compound was synthesized in situ by mixing the compound obtained in step 1 with 0.5 molar equiv. Fe2(SO4)3, (i.e., 1 molar equiv. Fe^3+). In one representative sample preparation, used for pH-potentiometry measurements, 7.2 mg (0.011 mmol) Ligand were mixed with 4.4 mg (0.011 mmol Fe) were mixed in 3.4 mL water (with 0.1 M NaCl), and the pH adjusted using 0.1 M NaOH. ESI-MS for [C22H22F6FeN3O7]^−: m/z [M^−]=609.1 (calc.); m/z=609.1(obsv.)
From the titration data (performed in combination with EDTA competition assay at pH 3), a log K=23.7 s estimated for Fe-CDTA-Ph-3,5-CF3.

[2] = T1-relaxivity (r1) of Fe3+ versus Fe2+ complex at pH 7.4; settings: for relaxivity r1: normalized to Fe concentration, Fe^2+ formed in situ with excess sodium ascorbate
Excerpt: FIG. 7 compares the relaxivity (r1; the Fe induced increase in T1 relaxation rate (R1) normalized to Fe concentration in mM) recorded for Fe^3+-CDTA-Ph-3,5-CF3 and Fe^2+-CDTA-Ph-3,5-CF3 at pH 7.4.
(§1) The term “relaxivity” as used herein, refers to the increase in either of the MR quantities 1/T1 or 1/T2 per millimolar (mM) concentration of paramagnetic ion or contrast agent, which quantities may be different if the contrast agent contains a multiplicity of paramagnetic ions, wherein T1 is the longitudinal or spin-lattice relaxation time, and T2 is the transverse or spin-spin relaxation time of water protons or other imaging or spectroscopic nuclei, including protons found in molecules other than water. Relaxivity is expressed in units of mM^−1s^−1.
FIG. 7 compares the relaxivity (r1; the Fe induced increase in T1 relaxation rate (R1) normalized to Fe concentration in mM) recorded for Fe^3+-CDTA-Ph-3,5-CF3 and Fe^2+-CDTA-Ph-3,5-CF3 at pH 7.4. The Fe^2+ complex was formed in situ by addition of excess sodium ascorbate. The r1 values for the Fe^3+ complex ([…] mM^−1s^−1) is 7.5-times greater than the sister Fe^2+ complex (2.8±0.003 mM^−1s^−1).

Cyclic voltammetry = settings: 0.5 M KNO3, GC working, Ag/AgCl reference, Pt counter electrode
[3] = T1-relaxivity (r1) as a function of pH
Excerpt: FIG. 5A compares the pH-dependence on T1-relaxivity (r1; the Fe induced increase in T1 relaxation rate (R1) normalized to Fe concentration in mM) for the structurally related Fe^3+ complexes Fe-CDTA-Ph-3,5-CF3 and Fe-PyCy2AI.
as §1
FIG. 5, Panel A, compares the pH-dependence on T1-relaxivity (r1; the Fe induced increase in T1 relaxation rate (R1) normalized to Fe concentration in mM) for the structurally related Fe^3+ complexes Fe-CDTA-Ph-3,5-CF3 and Fe-PyCy2AI.

Row | SMILES | log K (Fe^3+ complex stability) ([1]; pH-potentiometric titration in combination with EDTA competition assay at pH 3) | pKa ([1]; water, 0.1 m nacl, pH-potentiometric titration, 1 molar equiv. Fe^3+, read-out: pKa (deprotonation of ML to MLH−1)) | ratio of r1 Fe^3+ complex to Fe^2+ complex ([2]; pH 7.4) | relaxivity r1 ([2]; pH 7.4) [mM⁻¹ s⁻¹] | ratio of r1 Fe^3+ complex to Fe^2+ complex (heading of Example 5) ([2]; stated in heading) | oxidation and reduction waves, reversibility (Cyclic voltammetry; pH 3) | separation of oxidation and reduction waves (Cyclic voltammetry; pH 8) [V] | speciation at pH 7.4 ([3]; pH 7.4) | r1 (T1-relaxivity), comparison in words ([3]; pH 7.4, compared with Fe-PyC3A / Fe-PyCy2AI) | pKa ([3]; r1 vs pH, read-out: pKa of the Fe^3+ water co-ligand)
1 | O=C(O)CN(CC(=O)O)C1CCCCC1N(CC(=O)O)CC(=O)Nc1cc(C(F)(F)F)cc(C(F)(F)F)c1.[Fe+3] (centres unmarked) [Fe-CDTA-Ph-3,5-CF3] | 23.7 | 4.9 | 7.5 -times | 2.1 ± 0.11 | 10 -fold | reversible oxidation and reduction waves | ~1 | dominated by the monomeric complex | much greater | > 7.4
2 | O=C(O)CN(CC(=O)O)C1CCCCC1N(CC(=O)O)CC(=O)Nc1cc(C(F)(F)F)cc(C(F)(F)F)c1.[Fe+2] (centres unmarked) [Fe^2+-CDTA-Ph-3,5-CF3] | – | – | – | 2.8 ± 0.003 | – | – | – | – | – | –
